Measurements published in ChEMBL document CHEMBL1145250, “Discovery of 4-(dimethylamino)quinazolines as potent and selective antagonists for the melanin-concentrating hormone receptor 1” (Bioorg Med Chem Lett, 2005).

How the values were obtained:
[1] = target: T1, Neuropeptide Y receptor type 5 (Homo sapiens, UniProt Q15761); experiment: Inhibitory activity against constitutively activated human Neuropeptide Y receptor Y5 transiently expressed in COS-1 cells using [125I]PYY; assay type: cell-based
T1 sequence (Q15761 whole entry): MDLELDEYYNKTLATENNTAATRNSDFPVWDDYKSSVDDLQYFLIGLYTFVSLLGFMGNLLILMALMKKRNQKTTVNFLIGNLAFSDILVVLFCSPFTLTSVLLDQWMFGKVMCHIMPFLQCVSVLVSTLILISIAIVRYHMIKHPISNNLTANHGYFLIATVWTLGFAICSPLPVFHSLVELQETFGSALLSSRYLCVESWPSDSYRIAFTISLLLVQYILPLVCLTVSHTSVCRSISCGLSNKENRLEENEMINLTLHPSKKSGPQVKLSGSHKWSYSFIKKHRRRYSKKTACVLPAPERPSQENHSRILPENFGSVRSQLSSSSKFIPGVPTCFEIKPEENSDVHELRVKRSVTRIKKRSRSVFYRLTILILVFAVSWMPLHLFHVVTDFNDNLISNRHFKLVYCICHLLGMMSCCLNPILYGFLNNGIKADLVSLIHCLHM

[2] = target: T2, Melanin-concentrating hormone receptor 1 (Homo sapiens, UniProt Q99705); experiment: Inhibitory activity against mutated constitutively activated human Melanin concentrating hormone receptor 1 (CA-MCH-R1) stably expressed in HEK293 cells using [125I](Phe13, Tyr19) MCH; assay type: cell-based
Target sequence in this assay (Q99705 whole entry, looked up): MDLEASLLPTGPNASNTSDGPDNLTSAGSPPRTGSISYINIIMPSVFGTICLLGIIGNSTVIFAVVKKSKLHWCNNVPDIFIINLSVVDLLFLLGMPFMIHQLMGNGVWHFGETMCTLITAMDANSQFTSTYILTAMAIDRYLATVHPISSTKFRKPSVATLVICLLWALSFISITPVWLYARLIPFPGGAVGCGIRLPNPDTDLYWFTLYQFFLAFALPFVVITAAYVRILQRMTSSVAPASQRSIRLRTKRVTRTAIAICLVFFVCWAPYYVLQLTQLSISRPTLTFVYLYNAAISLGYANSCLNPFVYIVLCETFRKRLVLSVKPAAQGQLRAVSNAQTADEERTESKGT

[3] = target: Alpha-2A adrenergic receptor (Homo sapiens, UniProt P08913); experiment: Inhibitory activity against constitutively activated human Alpha-2A adrenergic receptor transiently expressed in COS-1 cells using [3H]MK-912; assay type: cell-based
Alpha-2A adrenergic receptor, sequence (P08913 whole entry, looked up): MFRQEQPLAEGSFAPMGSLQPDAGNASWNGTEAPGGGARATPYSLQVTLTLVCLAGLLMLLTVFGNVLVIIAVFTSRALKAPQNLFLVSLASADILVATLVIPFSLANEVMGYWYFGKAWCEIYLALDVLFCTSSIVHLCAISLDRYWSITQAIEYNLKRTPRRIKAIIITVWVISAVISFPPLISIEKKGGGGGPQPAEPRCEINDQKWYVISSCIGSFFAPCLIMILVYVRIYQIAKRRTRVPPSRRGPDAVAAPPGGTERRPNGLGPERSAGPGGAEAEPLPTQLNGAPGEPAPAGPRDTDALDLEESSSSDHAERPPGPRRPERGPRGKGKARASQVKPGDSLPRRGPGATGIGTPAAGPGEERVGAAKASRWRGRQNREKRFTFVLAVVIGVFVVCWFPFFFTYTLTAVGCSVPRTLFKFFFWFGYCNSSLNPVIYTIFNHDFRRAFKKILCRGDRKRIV

[4] = target: T2, Melanin-concentrating hormone receptor 1; experiment: Inhibitory activity against mutated constitutively activated human Melanin concentrating hormone receptor 1 (CA-MCH-R1) stably expressed in HEK293 cells using [125I](Phe13, Tyr19) MCH (n=8); assay type: cell-based
Target sequence in this assay (Q99705 whole entry, looked up): as the sequence (Q99705 whole entry, looked up) above

[5] = target: T2, Melanin-concentrating hormone receptor 1; experiment: Inhibitory activity against human wild type Melanin concentrating hormone receptor 1 (CA-MCH-R1) stably expressed in HEK293 cells using [125I](Phe13, Tyr19) MCH (n=3); assay type: cell-based
Target sequence in this assay (Q99705 whole entry): as the sequence (Q99705 whole entry, looked up) above

[6] = target: T2, Melanin-concentrating hormone receptor 1; experiment: Inhibitory activity against human constitutively activated Melanin concentrating hormone receptor 1 induced calcium flux stably expressed in HEK293 cells (n=6)
Target sequence in this assay (Q99705 whole entry): as the sequence (Q99705 whole entry, looked up) above

`CN(C)c1nc(NCC2CCN(S(=O)(=O)c3ccc(Br)cc3OC(F)(F)F)CC2)nc2ccccc12` was tested, and the IC50 [1] was 3000 nM, the IC50 [2] was 6000 nM and the IC50 [3] was 5.6 nM.
In the case of `CN(C)c1nc(NC2CCC(CNS(=O)(=O)c3ccc(Br)cc3OC(F)(F)F)CC2)nc2ccccc12` (stereo not given), the IC50 [1] is reported as 150 nM, the IC50 [2] is reported as 1500 nM and the IC50 [3] is reported as 110 nM.
With `CN(C)c1nc(NCC2CCC(CNS(C)(=O)=O)CC2)nc2ccccc12` (stereo not given) the IC50 [1] was 41 nM, the IC50 [2] was > 10000 nM and the IC50 [3] was 86 nM.
Work on `CN(C)c1nc(NC2CCN(S(=O)(=O)c3ccc(Br)cc3OC(F)(F)F)CC2)nc2ccccc12` yielded an IC50 [1] of 8900 nM, an IC50 [2] of 250 nM and an IC50 [3] of 170 nM.
`Nc1nc(NCC2CCC(CNS(=O)(=O)c3ccc(Br)cc3OC(F)(F)F)CC2)nc2ccccc12` (trans isomer) gave an IC50 [1] of 1.6 nM, an IC50 [2] of 1900 nM and an IC50 [3] of 100 nM.
`CN(C)c1nc(NCC2CCC(CNS(=O)(=O)c3ccc(Br)cc3OC(F)(F)F)CC2)nc2ccccc12` (trans isomer) showed an IC50 [4] of 160 nM, an IC50 [5] of 200 nM and an IC50 [1] of 2.7 nM. It also gave an IC50 [3] of 7.7 nM and an IC50 [6] of 140 nM.
Compound `CCCCS(=O)(=O)NCC1CCC(CNc2nc(N(C)C)c3ccccc3n2)CC1` (trans isomer) has an IC50 [1] of 4.9 nM, an IC50 [2] of 2900 nM and an IC50 [3] of 58 nM.
For `CN(C)c1nc(NC2CCC(NS(=O)(=O)c3ccc(Br)cc3OC(F)(F)F)CC2)nc2ccccc12` (trans isomer), the IC50 [1] was 31 nM, the IC50 [2] was 2200 nM and the IC50 [3] was 47 nM.
For `CN(C)c1nc(NCC2CCC(NS(=O)(=O)c3ccc(Br)cc3OC(F)(F)F)CC2)nc2ccccc12` (trans isomer), the IC50 [1] was 2.5 nM, the IC50 [2] was 810 nM and the IC50 [3] was 21 nM.
`CCCCCCCCS(=O)(=O)NCC1CCC(CNc2nc(N(C)C)c3ccccc3n2)CC1` (trans isomer) showed an IC50 [2] of 6700 nM.
In the case of `O=S(=O)(NCC1CCC(CNc2ncc3ccccc3n2)CC1)c1ccc(Br)cc1OC(F)(F)F` (trans isomer), the IC50 [1] is reported as 78 nM, the IC50 [2] is reported as > 10000 nM and the IC50 [3] is reported as 140 nM.
In the case of `CC(C)S(=O)(=O)NCC1CCC(CNc2nc(N(C)C)c3ccccc3n2)CC1` (trans isomer), the IC50 [2] is reported as > 10000 nM.
In the case of `Nc1nc(NC[C@H]2CC[C@H](CNS(=O)(=O)c3cccc4ccccc34)CC2)nc2ccccc12` [CGP-71683A], the IC50 [2] is reported as 3500 nM.
